Where a name gives a salt, the structure may show the parent alone.
What was measured:
[1] = system: Propionibacterium acens 11828; assay: In vitro antibacterial activity, MIC (standard strain); type: cell-based; conditions: Propionibacterium acens 11828, 10^6 cells/ml
P. aeruginosa IID 1210 = assay: MIC against the infecting strain (Table 2); type: cell-based; conditions: Pseudomonas aeruginosa, IID1210; P. aeruginosa IID 1210 (Table 2, part 3)

## CC1CN(c2c(F)cc3c(=O)c(C(=O)O)cn(C4CC4)c3c2Cl)CCN1 (stereo not drawn) [Example 5, 8-Chloro-l-cyclopropyl-6-fluoro-1,4-dihydro-7-(3-methyl-1-piperazinyl)-4-oxoquinoline-3-carboxylic acid hydrochloride]
[1]
  MIC: 0.39 µg/mL
P. aeruginosa IID 1210
  MIC: 0.78 µg/mL
